Drawing on ChEMBL document CHEMBL4699395, “Synthesis and evaluation of novel 2,4-disubstituted arylthiazoles against T. brucei” (RSC Med Chem, 2020), this text covers IC50 and selectivity ratio for 2 compounds.

In one series the test system is Trypanosoma brucei. Nature of the series: Antitrypanosomal activity against Trypanosoma brucei 427 bloodstream form assessed as concentration required to inhibit 50% parasite growth incubated for 48 hrs by Alamar blue assay. The note with it: Trypanosoma brucei, 427, 48 h. The series is classed as functional, organism-based.
A short description of series [1]: Selectivity index, ratio of IC50 for rat L6 cells assessed as cell growth inhibition incubated for 6 days by Alamar blue assay to IC50 for Trypanosoma brucei 427 bloodstream form assessed as parasite growth inhibition incubated for 48 hrs by Alamar blue assay. The note with it: L6 cells (versus Trypanosoma brucei 427 bloodstream form).

For the compound `N=C(N)Nc1nc(-c2ccc(C34CC5CC(CC(C5)C3)C4)cc2)cs1`, the IC50 in the series on Trypanosoma brucei amounted to 10 µM.

As for `NCc1nc(-c2ccc(C34CC5CC(CC(C5)C3)C4)cc2)cs1`, the selectivity ratio at 48 h in series [1] is less than 1.
